Consider eleven compounds from article PMC10584170, “Machine learning-based phenotypic imaging to characterise the targetable biology of Plasmodium falciparum male gametocytes for the development of transmission-blocking antimalarials” (PLOS Pathogens, 2023).

The test system of test [1] is P. falciparum female gametocytes. The test is described as follows: P. falciparum Dual Gamete Formation Assay (PfDGFA), female readout (Pfs25-positive female gametes). The test is classed as cell-based, Plasmodium falciparum NF54. The conditions noted are these: for Average inhibition female (%): average of replicates; for % inhibition female (individual replicates) R1: replicate R1; for % inhibition female (individual replicates) R3: replicate R3; for % inhibition female (individual replicates) R4: replicate R4. Summed up: (§1)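 Mature NF54 gametocytes (day 14) were incubated with compound for 24 h at 37°C under 1% O2/3% CO2, then triggered with xanthurenic acid ookinete medium plus Cy3-anti-Pfs25. Exflagellation was imaged by brightfield; after a further 24 h at 28°C, Pfs25-positive female gametes were imaged by fluorescence and counted by automated image analysis.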

Test [2] has as its system P. falciparum male gametocytes. The test is described as follows: P. falciparum Dual Gamete Formation Assay (PfDGFA), male readout (exflagellation). The test is classed as cell-based, Plasmodium falciparum NF54. To be noted: for Average inhibition male (%): average of replicates; for % inhibition male (individual replicates) R1: replicate R1; for % inhibition male (individual replicates) R3: replicate R3; for % inhibition male (individual replicates) R4: replicate R4; for Activity: hit = >50% inhibition in male or female readout in at least 3 replicates, 0 = no class assigned. The gist of the method:
as §1

Where [3] appears, read: 2µM, 24h preincubation with gametocytes prior to induction of gametogenesis.
Where [4] appears, read: 2µM, 24h preincubation, hits selected on >50% inhibition in the female readout across replicates.
[5] abbreviates: 2µM, 24h preincubation, hits selected on >50% inhibition in the male readout across replicates.
Setting [6] is: PfDGFA at 2µM, 24h preincubation.
[7] abbreviates: 2µM, 24h preincubation, number of replicates with >50% inhibition in the female readout.
The mark [8] stands for this setting: 2µM, 24h preincubation, number of replicates with >50% inhibition in the male readout.
[9] abbreviates: PfDGFA at 2µM, 24h preincubation with gametocytes prior to induction of gametogenesis.

Take `CC(CCCC(=O)Nc1ccc(CC(C)NCCc2cccc(Cl)c2)cc1)NCCc1cccc(Cl)c1` (stereo not drawn) [TCMDC-139798]: in test [1] (setting [3]), the “Average inhibition female (%)” value is 14.3%, the “% inhibition female (individual replicates) R1” value was 14.3%, the “% inhibition female (individual replicates) R3” value is 3.2% and the “% inhibition female (individual replicates) R4” value stood at 8.4%. The compound further yielded a HitlevelF in test [1] (setting [4]) of 0. Moreover, in test [2] (setting [3]), the “Average inhibition male (%)” value was 45.7%, the “% inhibition male (individual replicates) R1” value was 47.5%, the “% inhibition male (individual replicates) R3” value is on record as 7.0% and the “% inhibition male (individual replicates) R4” value was 68.9%. The same compound gave a HitlevelM in test [2] (setting [5]) of 2. In test [2] (setting [6]), this compound displayed an Activity of 0.

Turning to `CC(CCCCCC(=O)Nc1ccc(CC(C)NCCc2cccc(Cl)c2)cc1)NCCc1cccc(Cl)c1` (stereo not drawn) [TCMDC-139800], in test [1] (setting [3]), the “Average inhibition female (%)” value was 20.4%, the “% inhibition female (individual replicates) R1” value amounted to 18.8%, the “% inhibition female (individual replicates) R3” value is 1.8% and the “% inhibition female (individual replicates) R4” value was 5.6%. Also, in test [1] (setting [7]), the HitlevelF came to 1. In test [2] (setting [3]), the “Average inhibition male (%)” value was determined as 45.2%, the “% inhibition male (individual replicates) R1” value is 25.8%, the “% inhibition male (individual replicates) R3” value is on record as -13.9% and the “% inhibition male (individual replicates) R4” value is listed as 77.6%. Further, in test [2] (setting [8]), the HitlevelM is given as 2.

With `CCOc1ccccc1CCNC(C)Cc1ccc(C(=O)Nc2ccc(CC(C)NCCc3cccc(Cl)c3)cc2)cc1` (stereo not drawn) [TCMDC-139805], in test [1] (setting [3]), the “Average inhibition female (%)” value stood at 24.4%, the “% inhibition female (individual replicates) R1” value was found to be 22.1%, the “% inhibition female (individual replicates) R3” value is reported as 9.3% and the “% inhibition female (individual replicates) R4” value is 29.9%. In addition, the HitlevelF in test [1] (setting [7]) is listed as 0. Besides, in test [2] (setting [3]), the “Average inhibition male (%)” value is 59.5%, the “% inhibition male (individual replicates) R1” value was determined as 59.5%, the “% inhibition male (individual replicates) R3” value is listed as 21.2% and the “% inhibition male (individual replicates) R4” value is reported as 86.9%. Besides, the HitlevelM in test [2] (setting [8]) worked out at 3.

Consider `CC(Cc1ccc(COc2ccc(CC(CO)NCCc3cccc(Cl)c3)cc2)cc1)NCCc1cccc(Cl)c1.Cl` (stereo not drawn) [TCMDC-139844], for which, in test [1] (setting [9]), the “% inhibition female (individual replicates) R1” value is on record as -3.0%, the “% inhibition female (individual replicates) R3” value is on record as -11.7% and the “% inhibition female (individual replicates) R4” value is given as 12.8%. Further, the “Average inhibition female (%)” value in test [1] (setting [6]) is 1.7%. In test [2] (setting [9]), the “% inhibition male (individual replicates) R1” value is on record as -13.5%, the “% inhibition male (individual replicates) R3” value stood at 14.9% and the “% inhibition male (individual replicates) R4” value was 2.8%. Also, in test [2] (setting [6]), the “Average inhibition male (%)” value is on record as 1.7%.

`CC(Cc1ccc(NC(=O)c2ccc(CNCCc3ccccc3)cc2)cc1)NCCc1cccc(Cl)c1.Cl` (stereo not drawn) [TCMDC-139867]: in test [1] (setting [3]), the “Average inhibition female (%)” value worked out at 17.5%, the “% inhibition female (individual replicates) R1” value was 19.8%, the “% inhibition female (individual replicates) R3” value came out at 17.3% and the “% inhibition female (individual replicates) R4” value is given as 1.2%. For the same compound, the HitlevelF in test [1] (setting [4]) was 0. In test [2] (setting [3]), the “Average inhibition male (%)” value is on record as 35.8%, the “% inhibition male (individual replicates) R1” value was determined as 30.2%, the “% inhibition male (individual replicates) R3” value was 5.8% and the “% inhibition male (individual replicates) R4” value came to 68.9%. In test [2] (setting [5]), this compound displayed a HitlevelM of 1. The compound also returned an Activity in test [2] (setting [6]) of 0.

Take `CCCCCCCN1CC[C@@H](CCCc2ccnc3ccc(OC)cc23)[C@@H](CNC)C1.O=C(O)C(=O)O` [TCMDC-139875]: in test [1] (setting [3]), the “Average inhibition female (%)” value was 34.8%, the “% inhibition female (individual replicates) R1” value amounted to 28.9%, the “% inhibition female (individual replicates) R3” value is recorded as 7.1% and the “% inhibition female (individual replicates) R4” value is given as 50.9%. The HitlevelF in test [1] (setting [7]) is given as 2. Further, in test [2] (setting [3]), the “Average inhibition male (%)” value is 45.5%, the “% inhibition male (individual replicates) R1” value came to 37.4%, the “% inhibition male (individual replicates) R3” value was determined as 18.3% and the “% inhibition male (individual replicates) R4” value is on record as 73.6%. This compound gave a HitlevelM in test [2] (setting [8]) of 2.

`COc1ccc(OC)c(C=CC(=O)NC2CCC(CN3CCC(c4c[nH]c5ccccc45)CC3)CC2)c1` (stereo not drawn) [TCMDC-139893]: in test [1] (setting [9]), the “% inhibition female (individual replicates) R1” value worked out at 6.5%, the “% inhibition female (individual replicates) R3” value is listed as -21.7% and the “% inhibition female (individual replicates) R4” value is recorded as -6.1%. In addition, the “Average inhibition female (%)” value in test [1] (setting [6]) is recorded as -1.6%. Further, in test [2] (setting [9]), the “% inhibition male (individual replicates) R1” value was determined as 4.2%, the “% inhibition male (individual replicates) R3” value is on record as -21.0% and the “% inhibition male (individual replicates) R4” value is 20.2%. Moreover, in test [2] (setting [6]), the “Average inhibition male (%)” value is on record as 1.9%.

Consider `CN(C)CCCNCc1ccc(-c2ccc(C(F)(F)F)cc2)cc1` [TCMDC-140011], for which, in test [1] (setting [3]), the “Average inhibition female (%)” value is 26.9%, the “% inhibition female (individual replicates) R1” value was determined as 39.3%, the “% inhibition female (individual replicates) R3” value is on record as -6.8% and the “% inhibition female (individual replicates) R4” value stood at 25.9%. The same compound returned a HitlevelF in test [1] (setting [7]) of 0. In test [2] (setting [3]), the “Average inhibition male (%)” value turned out to be 54.2%, the “% inhibition male (individual replicates) R1” value was found to be 60.9%, the “% inhibition male (individual replicates) R3” value worked out at 33.7% and the “% inhibition male (individual replicates) R4” value is listed as 61.6%. The compound also had a HitlevelM in test [2] (setting [8]) of 3.

For the compound `OCc1c(Cl)cc(Cl)cc1CNCCCNc1nc2ccccc2[nH]1` [TCMDC-140012], in test [1] (setting [9]), the “% inhibition female (individual replicates) R1” value is given as -1.6%, the “% inhibition female (individual replicates) R3” value was -10.9% and the “% inhibition female (individual replicates) R4” value is reported as -3.1%. Also, the “Average inhibition female (%)” value in test [1] (setting [6]) is on record as -6.6%. Also, in test [2] (setting [9]), the “% inhibition male (individual replicates) R1” value was -9.5% and the “% inhibition male (individual replicates) R4” value was -7.6%. In test [2] (setting [6]), the “Average inhibition male (%)” value is on record as -5.6%.

For the compound `Nc1ccc2[nH]cc(C3CCN(CCC4CCN(C(=O)/C=C/c5ccc(Cl)c(Cl)c5)CC4)CC3)c2n1` [TCMDC-140062], in test [1] (setting [3]), the “Average inhibition female (%)” value amounted to 24.0%, the “% inhibition female (individual replicates) R1” value is given as 25.9%, the “% inhibition female (individual replicates) R3” value turned out to be 21.4% and the “% inhibition female (individual replicates) R4” value stood at 19.8%. The compound further gave a HitlevelF in test [1] (setting [7]) of 0. Moreover, in test [2] (setting [3]), the “Average inhibition male (%)” value is recorded as 34.7%, the “% inhibition male (individual replicates) R1” value is 41.7%, the “% inhibition male (individual replicates) R3” value was -5.5% and the “% inhibition male (individual replicates) R4” value is recorded as 54.9%. In addition, in test [2] (setting [8]), the HitlevelM was found to be 1.

Turning to `O=C(/C=C/c1ccc(Cl)c(Cl)c1)N1CCC(CN2CCC(c3c[nH]c4ccncc34)CC2)CC1` [TCMDC-140074], in test [1] (setting [3]), the “Average inhibition female (%)” value amounted to 19.7%, the “% inhibition female (individual replicates) R1” value was 24.3%, the “% inhibition female (individual replicates) R3” value was determined as 8.2% and the “% inhibition female (individual replicates) R4” value amounted to 6.7%. Also, the HitlevelF in test [1] (setting [7]) is given as 0. Besides, in test [2] (setting [3]), the “Average inhibition male (%)” value amounted to 29.9%, the “% inhibition male (individual replicates) R1” value was determined as 24.9%, the “% inhibition male (individual replicates) R3” value is recorded as -2.0% and the “% inhibition male (individual replicates) R4” value stood at 40.2%. The same compound had a HitlevelM in test [2] (setting [8]) of 1.
